Experimental data as given in patent US10668051B2, “Modulators of calcium release-activated calcium channel” (Rhizen Pharmaceuticals SA, priority 2009, dated 2020).

Columns and labels:
[1] = tested on: CRAC channels over the voltage operated channels (VOC); conditions: Yasurio Yonetoky et al.; cited from earlier work
Guinea Pigs = assay: OVA-Induced Asthma in Guinea Pigs; type: in vivo; conditions: 10 mg/kg b.wt, oral, 1 h before OVA challenge
Method: iv. OVA-Induced Asthma in Guinea Pigs: Pulmonary eosinophilia and airway remodelling in conjunction with altered neural control of airway tone and airway epithelial desquamation contributes to Airway Hyper-responsiveness (AHR) in asthma. For determination of eosinophil reduction, animals were sensitized with OVA on d0, d7, and d14 followed by another round (0.1% w/v) through inhalation on d19 & d20. Compounds were administered orally 1 h before OVA challenge (0.3%). BAL fluid was collected on d22 for differential count and cytokine estimation. For determination of change in respiratory parameters, animals were subjected to whole body plethysmography immediately after ova challenge.

male DBA/1 Ola HSD mice = assay: Collagen-induced arthritis in male DBA/1 Ola HSD mice; type: in vivo; conditions: 10 mg/kg b.wt, daily po, qd
Method: v. Collagen-induced arthritis in male DBA/1 Ola HSD mice: Collagen induced arthritis in rodent models have been widely used to illustrate and understand the development of the disease besides serving as a surrogate for validation of therapeutic targets for human rheumatoid arthritis. Mice were anesthetized with Isoflurane and given 150 μl of Bovine Type II collagen in Freund's complete adjuvant injections (day 0 and day 21). Treatment was initiated on study day 0 and continued once daily, every day (po, qd). Starting on day 18, clinical scores were given daily for each of the paws (right front, left front, right rear, left rear) and continued till the day of sacrifice (day 34). Daily administration of the test compound (Example 69) at 10 mg/kg b.wt alleviated arthritic symptoms, disease progression, and incidence by 30% compared to the control animals.

CRAC channels [2] = molecular target: T1, CRAC channels (Homo sapiens (Human), UniProt Q96D31); assay: In-vitro CRAC channel inhibition assay in Jurkat cells (thapsigargin-induced calcium influx); type: cell-based
In short: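 Jurkat cells given test compounds in Ca2+/Mg2+-free Hanks buffer for 15 min, then thapsigargin (1 μM final) for 15 min to deplete ER stores. IC50 from percent inhibition of thapsigargin-induced Ca2+ influx.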

Female Balb/C mice = assay: Concanavalin (Con) A induced Hepatitis in Female Balb/C mice; type: in vivo; conditions: 10 mg/kg b.wt, oral, 1 hour prior to Con A; blood after 24 hours
Method: i. Concanavalin (Con) A induced Hepatitis in Female Balb/C mice: Con A is often used to prepare experimental animals with high levels of cytotoxic T-lymphocytes, because these cells are involved in the development of viral infections in humans. In this model, animals were administered test compounds orally 1 hour prior to intravenous administration of Con A. Blood samples were collected after 24 hours for determination of Serum glutamic oxaloacetic transaminase (SGOT) and Serum glutamic pyruvic transaminase (SGPT) in serum. Results indicated >85% reduction in serum SGOT & SGPT upon administration of the test compound (example 69) at 10 mg/kg b.wt.

IL-2 [3] = assay: Inhibition of cytokine release in Human Whole Blood: IL-2; type: cell-based; conditions: Con A + PMA, 20 h, ELISA, read-out: IC 50 Human Whole Blood IL-2
Method: (§1) 2. In Vitro Inhibition of Cytokine Release in Jurkat Cells, Human Whole Blood and Peripheral Blood Mononuclear Cells (PBMC).
(§2) Inhibition of cytokine IL-2, IL-4, IL-5 and TNF α was determined as described below. • a. Inhibition of IL-2 in Jurkat cells: Cells were incubated with desired concentrations of the inhibitor for 15 min. Cytokine release was induced by the addition of Concanavalin A (25 μg/ml)+Phorbol Myristate Acetate (50 ng/ml) for IL-2 & TNFα or with Phytohemagglutinin ([…]) for IL-4 & IL-5 and incubated at 37° C. in an atmosphere containing […]. Supernatant was collected after 20 h (IL-2 & TNFα) or 48 h (IL-4 & IL-5) for estimation of cytokines by ELISA. Data were analysed using GraphPad Prism. IC50 values for each compound were determined based on the percent inhibition due to the test compound compared to the control. • b. Inhibition of cytokine release in Human Whole Blood (HWB): Freshly collected HWB was diluted with RPMI medium (1:4.5) and added to a 96-well plate. Wells were incubated with desired concentrations of the inhibitor for 15 min. Cytokine release was induced by the addition of Concanavalin A (25 μg/ml)+Phorbol Myristate Acetate (50 ng/ml) for IL-2 & TNFα or with Phytohemagglutinin (5 μg/ml) for IL-4 & IL-5 and incubated at 37° C. in an atmosphere containing […]. Supernatant was collected after 20 h (IL-2 & TNFα) or 48 h (IL-4 & IL-5) for estimation of cytokines by ELISA. Data were analysed using GraphPad Prism. IC50 values for each compound were determined based on the percent inhibition due to the test compound compared to the control. • c. Inhibition of cytokine release in PBMC: PBMC from freshly collected HWB were isolated by density gradient using Histopaque and seeded in a 96-well plate. Cells were incubated with desired concentrations of the inhibitor for 15 min. Cytokine release was induced by the addition of Concanavalin A (25 μg/ml)+Phorbol Myristate Acetate (50 ng/ml) for IL-2 & TNFα or with Phytohemagglutinin (5 μg/ml) for IL-4 & IL-5 and incubated at 37° C. in an atmosphere containing […]. Supernatant was collected after 20 h (IL-2 & TNFα) or 48 h (IL-4 & IL-5) for estimation of cytokines by ELISA. Data were analysed using GraphPad Prism. IC50 values for each compound were determined based on the percent inhibition due to the test compound compared to the control.

IL-4 [4] = assay: Inhibition of cytokine release in Human Whole Blood: IL-4; type: cell-based; conditions: Phytohemagglutinin, 48 h, ELISA, read-out: IC 50 Human Whole Blood IL-4
Method: as §1, §2

IL-5 [5] = assay: Inhibition of cytokine release in PBMC: IL-5; type: cell-based; conditions: Homo sapiens, Phytohemagglutinin, 48 h, ELISA, read-out: IC 50 PBMC IL-5
Method: as §1, §2

IL-2 [6] = assay: Inhibition of IL-2 in Jurkat cells; type: cell-based; conditions: Homo sapiens, Con A + PMA, 20 h, ELISA, read-out: IC 50 Jurkat IL-2
Method: as §1, §2

IL-2 [7] = assay: Inhibition of cytokine release in PBMC: IL-2; type: cell-based; conditions: Homo sapiens, Con A + PMA, 20 h, ELISA, read-out: IC 50 PBMC IL-2
Method: as §1, §2

IL-4 [8] = assay: Inhibition of cytokine release in PBMC: IL-4; type: cell-based; conditions: Homo sapiens, Phytohemagglutinin, 48 h, ELISA, read-out: IC 50 PBMC IL-4
Method: as §1, §2

TNFα [9] = assay: Inhibition of cytokine release in Human Whole Blood: TNFα; type: cell-based; conditions: Con A + PMA, 20 h, ELISA, read-out: IC 50 Human Whole Blood TNFα
Method: as §1, §2

IL-5 [10] = assay: Inhibition of cytokine release in Human Whole Blood: IL-5; type: cell-based; conditions: Phytohemagglutinin, 48 h, ELISA, read-out: IC 50 Human Whole Blood IL-5
Method: as §1, §2

TNFα [11] = assay: Inhibition of cytokine release in PBMC: TNFα; type: cell-based; conditions: Homo sapiens, Con A + PMA, 20 h, ELISA, read-out: IC 50 PBMC TNFα
Method: as §1, §2

CRAC channels [12] = molecular target: T1, CRAC channels; assay: In-vitro CRAC channel inhibition assay in NCI-H460 cancer cell line (Ca assay); type: cell-based; conditions: thapsigargin-induced calcium influx, NCI-H460 cells
Method: 1B. In-Vitro CRAC Channel Inhibition Assay in NCI-H460 Cancer Cell Line
Inhibition of CRAC channels was determined following thapsigargin (Sigma, Cat #T9033) induced endoplasmic calcium release in NCI-H460 cells (National Centre For Cell Science (NCCS), Pune).
Cells (30,000 per well) were plated overnight in complete RPMI medium. Medium was substituted with Ca^2+ and Mg^2+ free Hanks buffer and Fluo-8 NW dye (ABD Bioquest, Inc., Sunnyvale, Calif.) loading solution in 96-well black plate. Plate was incubated at 37° C./5% CO2 for 30 min followed by further 15 min incubation at room temperature. Test compounds (DMSO stocks diluted in Ca^2+ and Mg^2+ free Hanks buffer) at desired concentrations were added to the wells and incubated for 15 min. Thapsigargin (1 μM final concentration) was added to the wells and incubated for 15 min to inhibit the Sarco-endoplasmic reticulum Ca^2+ ATPase pump thereby depleting endoplasmic calcium and raising cytosolic calcium concentrations. Store-operated calcium entry was initiated by adding extracellular Ca^2+ to a final concentration of 2.5 mM. Fluorescence was monitored over 30 min on a plate reader (BMG Labtech., Germany) with excitation at 485 nm and an emission wavelength at 520 nm. Data were analyzed using GraphPad Prism. IC50 for each compound was determined based on the percent inhibition of Thapsigargin-induced calcium influx into cells.

[13] = tested on: NCI-H460 cancer cell line; assay: In-vitro cell proliferation assay in NCI-H460 cancer cell line (MTT); type: cell-based; conditions: Homo sapiens, 10 μM, 48 h
Method: 1C. In-Vitro Cell Proliferation Assay in NCI-H460 Cancer Cell Line (Anticancer Activity)
Growth inhibition assays were carried out using 10% FBS supplemented media. Cells were seeded at a concentration of 5000 cells/well in a 96-well plate. Test compound at a concentration range from 0.01 to 10000 nM were added after 24 h. Growth was assessed using the 3-[4,5-dimethylthiazol-2-yl]-2,5-diphenyltetrazolium bromide (MTT) dye reduction test at 0 h (prior to the addition of the test compound) and 48 h after the addition of test compound. Absorbance was read on a Fluostar Optima (BMG Labtech, Germany) at a wave length of 450 nm. Data were analysed using GraphPad Prism. IC-50 for each compound was determined based on the % inhibition due to the test compound compared to the control.
For methods of cell proliferation assay, see, for example, Mosmann. T., Journal of Immunological Methods, 65(1-2), 55-63, (1983).

T1 sequence (Q96D31 whole entry): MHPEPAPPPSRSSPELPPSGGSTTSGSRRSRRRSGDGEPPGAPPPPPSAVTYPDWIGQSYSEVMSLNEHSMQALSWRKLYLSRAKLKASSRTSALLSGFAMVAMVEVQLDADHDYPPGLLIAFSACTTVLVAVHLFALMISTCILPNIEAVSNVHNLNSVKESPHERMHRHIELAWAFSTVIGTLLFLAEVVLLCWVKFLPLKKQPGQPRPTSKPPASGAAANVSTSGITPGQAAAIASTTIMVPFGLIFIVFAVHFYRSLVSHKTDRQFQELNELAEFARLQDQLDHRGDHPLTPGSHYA

Row | inhibition at 1 µM (CRAC channels [2]) [%] | IC50 (IL-2 [3]) [nM] | IC50 (IL-4 [4]) [nM] | IC50 (IL-5 [5]) [nM] | IC50 (IL-2 [6]) [nM] | IC50 (IL-2 [7]) [nM] | IC50 (IL-4 [8]) [nM] | IC50 (TNFα [9]) [nM] | IC50 (IL-5 [10]) [nM] | IC50 (TNFα [11]) [nM] | inhibition at 1 µM (CRAC channels [12]) [%] | Structure (SMILES) | selective index CRAC channels over VOC [1] | change in respiratory parameters (whole body plethysmography) (Guinea Pigs) | alleviation of arthritic symptoms, disease progression, and incidence compared to the control animals (male DBA/1 Ola HSD mice) [%] | reduction in serum SGOT (Female Balb/C mice) [%] | reduction in serum SGPT (Female Balb/C mice) [%] | inhibition at 10 µM [13] [%]
1 |  |  |  |  |  |  |  |  |  |  |  | Cc1nnsc1C(=O)Nc1ccc(-n2nc(C(F)(F)F)cc2C(F)(F)F)cc1 [YM-58483] | 31 |  |  |  |  | 
2 | 74.6 |  |  |  |  |  |  |  |  |  |  | Cc1ncc(C(=O)Nc2ccc(-n3nc(C(F)(F)F)cc3C3CC3)cc2)c(C)n1 [Example 69, N-{4-[5-cyclopropyl-3-(trifluoromethyl)-1H-pyrazol-1-yl]phenyl}-2,4-dimethylpyrimidine-5-carboxamide] |  | improvement in respiration | 30 | > 85 | > 85 | 
3 | 100 | 229 | 260 |  |  |  |  |  |  |  |  | O=C(Nc1ccc(-n2nc(C(F)(F)F)cc2C2CC2)c(F)c1)c1c(F)cccc1F [Example 88, N-{4-[5-cyclopropyl-3-(trifluoromethyl)-1H-pyrazol-1-yl]-3-fluorophenyl}-2,6-difluorobenzamide] |  |  |  |  |  | 
4 | 90 | 65.1 | 142 | 140 | 140 | 52.9 | 264 | 148 | 173 | 66.8 |  | Cc1ncncc1C(=O)Nc1ccc(-n2nc(C(F)(F)F)cc2C2CC2)c(F)c1 [Example 93, N-{4-[5-cyclopropyl-3-(trifluoromethyl)-1H-pyrazol-1-yl]-3-fluorophenyl}-4-methylpyrimidine-5-carboxamide] |  |  |  |  |  | 
5 | 96.2 | 138 | 143 | 20.6 |  | 17.5 | 55.8 | 38.4 | 19.8 | 16.5 |  | O=C(Nc1ccc(-n2nc(C(F)(F)F)cc2C2CC2)nc1)c1c(F)cccc1F [Example 108, N-{6-[5-cyclopropyl-3-(trifluoromethyl)-1H-pyrazol-1-yl]pyridin-3-yl}-2,6-difluorobenzamide] |  |  |  |  |  | 
6 | 86.7 | 77.8 | 256 |  |  | 31.4 |  |  | 56.4 |  |  | O=C(Nc1c(F)cccc1F)c1ccc(-n2nc(C(F)(F)F)cc2C2CC2)c(F)c1 [Example 100, 4-[5-cyclopropyl-3-(trifluoromethyl)-1H-pyrazol-1-yl]-N-(2,6-difluorophenyl)-3-fluorobenzamide] |  |  |  |  |  | 
7 | 100 | 132 |  |  | 57.9 | 15.7 | 352 | 546 |  | 86.8 |  | Cc1ncsc1C(=O)Nc1ccc(-n2nc(C(F)(F)F)cc2C2CC2)c(F)c1 [Example 83, N-{4-[5-cyclopropyl-3-(trifluoromethyl)-1H-pyrazol-1-yl]-3-fluorophenyl}-4-methylthiazole-5-carboxamide] |  |  |  |  |  | 
8 | 100 | 600 |  | 198 |  | 54.3 |  |  | 46.3 |  |  | Cc1nnsc1C(=O)Nc1ccc(-n2nc(C3CC3)cc2C2CC2)c(F)c1 [Example 28, N-[4-(3,5-dicyclopropyl-1H-pyrazol-1-yl)-3-fluorophenyl]-4-methyl-1,2,3-thiadiazole-5-carboxamide] |  |  |  |  |  | 
9 | 99.4 | 274 |  | 146 |  | 21.3 | 79.9 | 125 | 61.8 | 121 | 84.6 | Cc1ncsc1C(=O)Nc1ccc(-n2nc(C(F)(F)F)cc2C2CC2)cc1 [Example 53, N-{4-[5-cyclopropyl-3-(trifluoromethyl)-1H-pyrazol-1-yl]phenyl}-4-methylthiazole-5-carboxamide] |  |  |  |  |  | 22
